Values after ≈ are worked out from the molar mass of the structure shown.
Tested on: Candida albicans
Experiment: Antifungal activity against Candida albicans assessed as growth inhibition
Type: functional
Settings: for MIC: Candida albicans

| Compound | MIC | -logMIC |
| --- | --- | --- |
| Cc1ncc([N+](=O)[O-])n1CC(O)COc1cccc2ccccc12 (configuration not stated) | 100 mg/L (≈ 305 µM) | 2.06 |
| Cc1ncc([N+](=O)[O-])n1CC(O)CNCC(C)C (configuration not stated) | 100 mg/L (≈ 390 µM) | 1.99 |
| Cc1nccn1CC(=O)c1ccc([N+](=O)[O-])cc1 | 200 mg/L (≈ 816 µM) | 2.9 |
| Cc1nccn1CC(O)c1ccc(Cl)cc1 (configuration not stated) | 200 mg/L (≈ 845 µM) | 2.31 |
| Cc1ncc([N+](=O)[O-])n1CN(C(C)C)C(C)C | 100 mg/L (≈ 416 µM) | 2 |
| Cc1ccc(NC(=S)Nn2ccnc2-c2ccc(Cl)cc2)cc1 | 500 mg/L (≈ 1460 µM) | 2.69 |
| Cc1ccccc1OCC(O)Cn1c([N+](=O)[O-])cnc1C (configuration not stated) | 100 mg/L (≈ 343 µM) | 2 |
| Cc1ncc([N+](=O)[O-])n1CCOC(c1ccccc1)c1cccs1 (configuration not stated) | 400 mg/L (≈ 1160 µM) | 2.6 |
| Cc1ncc([N+](=O)[O-])n1CCOC(c1ccccc1)c1ccccc1S (configuration not stated) | 400 mg/L (≈ 1080 µM) | 2.6 |
| Cc1nc([N+](=O)[O-])cn1CCC(=O)Nc1ccccc1Cl | 1000 mg/L (≈ 3240 µM) | 2.93 |
| Cc1ncc([N+](=O)[O-])n1CCOC(c1ccccc1)c1cnccn1 (configuration not stated) | 400 mg/L (≈ 1180 µM) | 2.6 |
| Cc1ccccc1NC(=S)Nn1ccnc1-c1ccc(Cl)cc1 | 100 mg/L (≈ 292 µM) | 2.03 |
| Cc1ncc([N+](=O)[O-])n1CCN(C(C)C)C(C)C | 25 mg/L (≈ 98.3 µM) | 1.38 |
| Cc1nccn1CC(=O)c1ccc(Br)cc1 | 300 mg/L (≈ 1070 µM) | 2.48 |
| O=C(Cn1ccnc1)c1ccc(Cl)cc1 | 100 mg/L (≈ 453 µM) | 2 |
| O=C(Cn1ccnc1)c1ccc(Br)cc1 | 250 mg/L (≈ 943 µM) | 2.3 |
| OC(Cn1ccnc1)c1ccc(Cl)cc1 (configuration not stated) | 250 mg/L (≈ 1120 µM) | 2.4 |

| Compound | MIC | -logMIC |
| --- | --- | --- |
| Cc1nc([N+](=O)[O-])cn1CCC(=O)Nc1ccccc1[N+](=O)[O-] | 1000 mg/L (≈ 3130 µM) | 2.95 |
| Cc1ncc([N+](=O)[O-])n1CC(=O)Nc1cccc(O)c1 | 800 mg/L (≈ 2900 µM) | 2.9 |
| Cc1ncc([N+](=O)[O-])n1CNc1cccc2ccccc12 | 100 mg/L (≈ 354 µM) | 2 |
| Cc1ccc(NCn2c([N+](=O)[O-])cnc2C)cc1 | 100 mg/L (≈ 406 µM) | 1.98 |
| Cc1nccn1CC(O)c1ccc(-c2ccccc2)cc1 (configuration not stated) | 200 mg/L (≈ 719 µM) | 2.33 |
| COc1ccc(NC(=S)Nn2ccnc2-c2ccc(Br)cc2)cc1 | 100 mg/L (≈ 248 µM) | 2 |
| Cc1nccn1CC(O)c1ccc(Br)cc1 (configuration not stated) | 200 mg/L (≈ 711 µM) | 2.35 |
| Cc1nccn1CC(=O)Nc1cccc(O)c1 | 800 mg/L (≈ 3460 µM) | 2.9 |
| Cc1nccn1CCC(=O)Nc1cccc(O)c1 | 800 mg/L (≈ 3260 µM) | 2.9 |
| Cc1nc([N+](=O)[O-])cn1CCC(=O)Nc1ccccc1 | 1000 mg/L (≈ 3650 µM) | 3 |
| Cc1ncc([N+](=O)[O-])n1CNc1ccccc1 | 100 mg/L (≈ 431 µM) | 1.94 |
| Cc1ncc([N+](=O)[O-])n1CCNc1ccccc1[N+](=O)[O-] | 100 mg/L (≈ 343 µM) | 2 |
| Cc1ncc([N+](=O)[O-])n1CC(O)COc1ccccc1 (configuration not stated) | 100 mg/L (≈ 361 µM) | 2.06 |
| Cc1nc([N+](=O)[O-])cn1CCC(=O)Nc1ccccc1S | 500 mg/L (≈ 1630 µM) | 2.68 |
| Cc1ncc([N+](=O)[O-])n1CCNc1ccc([N+](=O)[O-])cc1 | 12.5 mg/L (≈ 42.9 µM) | 1.1 |
| Cc1nc([N+](=O)[O-])cn1CC(=O)CNc1cccc(Cl)c1 | 400 mg/L (≈ 1300 µM) | 2.6 |
| Cc1ncc([N+](=O)[O-])n1CCC(=O)Nc1cccc(O)c1 | 800 mg/L (≈ 2760 µM) | 2.9 |

The next lines start with results.

| MIC | Compound | -logMIC |
| --- | --- | --- |
| 300 mg/L (≈ 1090 µM) | Cc1nccn1CC(=O)c1ccc(-c2ccccc2)cc1 | 2.48 |
| 100 mg/L (≈ 279 µM) | COc1ccccc1NC(=S)Nn1ccnc1-c1ccc(Cl)cc1 | 1.97 |
| 200 mg/L (≈ 749 µM) | OC(Cn1ccnc1)c1ccc(Br)cc1 (configuration not stated) | 2.3 |
| 400 mg/L (≈ 1390 µM) | Cc1ccc(NCC(=O)Cn2cc([N+](=O)[O-])nc2C)cc1 | 2.6 |
| 100 mg/L (≈ 258 µM) | Cc1ccccc1NC(=S)Nn1ccnc1-c1ccc(Br)cc1 | 2.01 |
| 500 mg/L (≈ 1620 µM) | Cc1nc([N+](=O)[O-])cn1CCC(=O)Nc1cccc(Cl)c1 | 2.71 |
| 1.95 mg/L (≈ 4.86 µM) | COc1ccc(NC(=S)Nn2c(-c3ccc([N+](=O)[O-])cc3)cnc2S)cc1 | 0.29 |
| 300 mg/L (≈ 1210 µM) | Cc1nccn1CC(O)c1ccc([N+](=O)[O-])cc1 (configuration not stated) | 2.39 |
| > 500 mg/L | O=[N+]([O-])c1ccc(-c2cnc(S)n2NC(=S)Nc2cccc3ccccc23)cc1 | 2.7 |
| 800 mg/L (≈ 3680 µM) | O=C(Cn1ccnc1)Nc1cccc(O)c1 | 2.9 |
| 50 mg/L (≈ 236 µM) | CCCNCCn1c([N+](=O)[O-])cnc1C | 1.68 |
| 31.2 mg/L (≈ 81.1 µM) | Cc1ccccc1NC(=S)Nn1c(-c2ccc([N+](=O)[O-])cc2)cnc1S | 1.5 |
| 50 mg/L (≈ 203 µM) | Cc1ncc([N+](=O)[O-])n1CCNc1ccccc1 | 1.7 |
| 250 mg/L (≈ 645 µM) | Cc1ccc(NC(=S)Nn2ccnc2-c2ccc(Br)cc2)cc1 | 2.41 |
| 500 mg/L (≈ 979 µM) | Cc1nc([N+](=O)[O-])cn1CCC(=O)Nc1c(Br)cc(Br)cc1Br | 2.64 |
| 200 mg/L (≈ 852 µM) | Cc1nccn1CC(=O)c1ccc(Cl)cc1 | 2.26 |

| MIC | Compound | -logMIC |
| --- | --- | --- |
| 400 mg/L (≈ 1120 µM) | Cc1ncc([N+](=O)[O-])n1CCOC(Cc1cccs1)c1ccccc1 (configuration not stated) | 2.6 |
| 400 mg/L (≈ 1310 µM) | COc1ccccc1NCC(=O)Cn1cc([N+](=O)[O-])nc1C | 2.6 |
| 400 mg/L (≈ 1460 µM) | Cc1nc([N+](=O)[O-])cn1CC(=O)CNc1ccccc1 | 2.6 |
| 800 mg/L (≈ 2590 µM) | Cc1ncc([N+](=O)[O-])n1CC(=O)CNc1ccc(Cl)cc1 | 2.6 |
| 100 mg/L (≈ 390 µM) | CCCCNCC(O)Cn1c([N+](=O)[O-])cnc1C (configuration not stated) | 1.99 |
| 500 mg/L (≈ 1530 µM) | Cc1ncc([N+](=O)[O-])n1CC(O)COc1ccc2ccccc2c1 (configuration not stated) | 2.69 |
| 250 mg/L (≈ 660 µM) | S=C(Nc1cccc2ccccc12)Nn1ccnc1-c1ccc(Cl)cc1 | 2.42 |
| 25 mg/L (≈ 118 µM) | Cc1ncc([N+](=O)[O-])n1CCNC(C)C | 1.39 |
| 200 mg/L (≈ 569 µM) | Cc1nc([N+](=O)[O-])cn1CC(CNc1ccccc1)Nc1ccccc1 (configuration not stated) | 2.3 |
| 100 mg/L (≈ 236 µM) | S=C(Nc1cccc2ccccc12)Nn1ccnc1-c1ccc(Br)cc1 | 2.01 |
| 3.91 mg/L (≈ 10.1 µM) | Cc1ccc(NC(=S)Nn2c(-c3ccc([N+](=O)[O-])cc3)cnc2S)cc1 | 0.6 |
| 100 mg/L (≈ 279 µM) | COc1ccc(NC(=S)Nn2ccnc2-c2ccc(Cl)cc2)cc1 | 2.02 |
| 500 mg/L (≈ 1540 µM) | Cc1nc([N+](=O)[O-])cn1CCC(=O)Nc1cccc2ccccc12 | 2.74 |
| 250 mg/L (≈ 620 µM) | COc1ccccc1NC(=S)Nn1ccnc1-c1ccc(Br)cc1 | 2.4 |
| 400 mg/L (≈ 1380 µM) | Cc1ncc([N+](=O)[O-])n1C(C)C(=O)Nc1cccc(O)c1 (configuration not stated) | 2.6 |
| 800 mg/L (≈ 3460 µM) | O=C(CCn1ccnc1)Nc1cccc(O)c1 | 2.9 |

Source: ChEMBL document CHEMBL3045100, “Comparative molecular similarity indices analysis of some 1-substituted imidazole analogs as Candida albicans P450-demethylase inhibitors” (2013)
